Experimental data as given in publication PMC6826616, “Topical 2′-Hydroxyflavanone for Cutaneous Melanoma” (Cancers, 2019).
Read-outs that look alike come from different tables or passages of the source.

Columns and labels:
[1] = system: B16-F0 cells; test: EGF-pHrodo endocytosis, B16-F0 (microscopy and flow cytometry); format: cell-based, mouse; conditions: Rlip-antisense, Rlip-shRNA, or 10 µM 2HF for 24 h
Method: (§1) Figure 3 Effects of Rlip depletion on epidermal growth factor (EGF) endocytosis of mouse melanoma cells. Representative photomicrographs of Rlip-depleted B16-F0 and B16-F10 cells showing the inhibition of EGF-pHrodo endocytosis. […] Rlip was depleted by treating cells with Rlip-antisense, Rlip-shRNA, or 10 µM 2HF for 24 h as described in Materials and Methods section 4.8. Photographs were taken at identical exposures using 200× magnification.
Figure 4 Flow cytometry analysis of EGF-pHrodo endocytosis in control or Rlip depleted B16-F0 cells. Flow cytometry analysis of B16-F0 cells was performed 24 h after Rlip depletion by shRNA, RLIP76-antisense, or treatment with […] 2HF. Cells were stained with EGF-pHrodo. EGF-pHrodo-positive cells as shown on scatter plots were identified and gated based on forward and side scatter properties. The PE channel was used for red fluorescence to measure EGF-pHrodo positivity. […] Each flow cytometry analysis plot is a representative example of three independent experiments. […]
The effect of Rlip knockdown/depletion by shRNA, RLIP76-antisense (R508), or 2HF on endocytosis was studied in B16 melanoma cell lines. […] Slides were analyzed using a fluorescence microscope (Olympus America, Melville, NY, USA). […]
The effect of Rlip knockdown on endocytosis was further checked by flow cytometry. […] After 24 h, cells were trypsinized, washed with cold PBS, and counted. […]

[2] = system: SK-MEL-24 cells; test: MTT cytotoxicity assay, SK-MEL-24; format: cell-based; conditions: Homo sapiens
Source text: We studied the growth-inhibitory effects of 2HF on the B16-F0 and B16-F10 murine melanoma cell lines as well as on the SK-MEL-24 human melanoma cell line. B16-F10 and SK-MEL-24 have been shown in previous studies to be highly resistant to treatment and much more invasive than B16-F0 [32]. […] The absorption value measured upon reduction of the MTT dye by functional mitochondria is an indirect measure of cell number that cannot distinguish inhibited cell proliferation from apoptotic or necrotic cell death. By counting viable (trypan-blue dye-excluding) cells using a hemacytometer, we verified that 2HF did indeed cause cell death.
Figure 1 Mouse and human melanoma cell survival following 2′-hydroxyflavanone (2HF) treatment.
The IC50 of 2HF on B16-F0, B16-F10, and SK-MEL-24 cells was determined by MTT cytotoxicity assay. Cells were harvested and Trypan Blue dye exclusion test was used to determine the number of viable cells present in a cell suspension using a hemocytometer. The cell suspension was diluted to 5 × 10^4 cells/mL with Dulbecco’s Modified Eagle’s Medium (DMEM) complete medium and 5000 cells/well were plated in 96-well plates. After 24 h incubation at 37 °C, cells were treated with 2HF concentrations ranging from 0–200 µM (8 replicates per plate). After 48 or 72 h incubation, 40 µL of MTT (5 mg/mL) solution was added. After 4 h incubation, the plate was centrifuged at 700× g for 5 min and medium was aspirated completely. Then, 50 µL DMSO was added to each well to dissolve the purple precipitate on the rocking platform for about 15 min. The absorbance was then measured at 490 nm using a 96-well microplate reader (Spectramax Plus, Molecular Devices, Inc, San Jose, CA, USA).

[3] = Blood counts and serum chemistry after topical 2HF; format: in vivo, B16-F0 melanoma-bearing C57B mice; conditions: topical 12 mg 2HF/0.1 mL PLO gel
Method: Blood samples were collected from representative mice from the control and 2HF-treated with 12 mg/0.1 mL PLO gel topically each day for 8 weeks just before euthanasia. These samples were used for hematologic, hepatic, renal, and metabolic profiling. A Hemavet instrument (Drew Scientific, Dallas, TX, USA) was used for determination of hematologic parameters.

[4] = system: B16-F10 cells; test: EGF-pHrodo endocytosis, B16-F10 (microscopy); format: cell-based, mouse; conditions: Rlip-antisense, Rlip-shRNA, or 10 µM 2HF for 24 h
Method: as §1
The effect of Rlip knockdown/depletion by shRNA, RLIP76-antisense (R508), or 2HF on endocytosis was studied in B16 melanoma cell lines. The cells were transfected with Rlip shRNA or R508 antisense and their scrambled shRNA and scrambled antisense (CAS) controls as previously described. Briefly, B16 cells were grown in DMEM medium containing 10% FBS on Nunc 4 chamber slides overnight to 70–80% confluence. For RLIP76 knockdown, pSUPER retro puro shRLIP plasmid DNA (8 µg/mL) and RLIP76-antisense (R508; 10 μg/mL final conc.) and their respective controls (scrambled shRNA and CAS) were pre-complexed with Lipofectamine 2000 reagent in Opti-MEM® reduced serum medium for transfection of the cells. Other sets of slides were treated with vehicle (Methanol) or 10 µM 2HF to inhibit Rlip expression. […] Slides were analyzed using a fluorescence microscope (Olympus America, Melville, NY, USA). […]

In the case of `O=C1CC(c2ccccc2O)Oc2ccccc21` (centres unmarked) [2HF, 2′-hydroxyflavanone], the “EGF-pHrodo endocytosis (fluorescence microscopy)” value [1] is reported as “completely blocked”, the IC50 ([2]; MTT, 72 h, mean ±SD, n = 5, read-out: IC50 at 72 h (growth/survival)) is reported as 44 ± 6 µM and the IC50 ([2]; Table 1, agent alone, read-out: IC50) is reported as 44.9 ± 1.67 µM. The “adverse effects on blood counts, renal function, or liver enzymes” value [3] was “no adverse effects” and the “EGF-pHrodo endocytosis (fluorescence microscopy)” value [4] was “completely blocked”.
